Assay results published in patent US20100137305A1, “AMINOPYRIMIDINES USEFUL AS KINASE INHIBITORS” (VERTEX PHARMACEUTICALS INCORPORATED, priority 2008, published 2010).
Like-named read-outs stand apart in the source and are kept apart here.

Key:
Aurora-2 (Aurora A) = target: T1, Aurora-2 (Aurora A) (Homo sapiens, UniProt O14965); test: Aurora-2 (Aurora A) Inhibition Assay, coupled enzyme assay; assay type: biochemical; conditions: 400 μM ATP, 30° C.; read-out: Aurora A kinase activity Ki
T1 sequence (O14965 1-403): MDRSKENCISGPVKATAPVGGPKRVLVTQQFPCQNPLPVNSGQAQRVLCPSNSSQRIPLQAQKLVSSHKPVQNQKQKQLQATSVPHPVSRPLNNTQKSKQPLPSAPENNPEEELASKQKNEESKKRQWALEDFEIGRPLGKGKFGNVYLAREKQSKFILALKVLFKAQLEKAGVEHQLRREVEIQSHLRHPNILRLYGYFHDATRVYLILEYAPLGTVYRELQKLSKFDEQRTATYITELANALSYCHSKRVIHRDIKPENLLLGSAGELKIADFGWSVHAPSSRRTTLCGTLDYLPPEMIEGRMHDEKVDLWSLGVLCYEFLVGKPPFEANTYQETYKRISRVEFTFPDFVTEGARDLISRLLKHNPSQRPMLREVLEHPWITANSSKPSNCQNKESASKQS
Experimental: Compounds were screened for their ability to inhibit Aurora-2 using a standard coupled enzyme assay (Fox et al., Protein Sci., (1998) 7, 2249). Assays were carried out in a mixture of 100 mM Hepes (pH7.5), 10 mM MgCl2, 1 mM DTT, 25 mM NaCl, 2.5 mM phosphoenolpyruvate, 300 μM NADH, 30 μg/ml pyruvate kinase and 10 μg/ml lactate dehydrogenase. Final substrate concentrations in the assay were 400 μM ATP (Sigma Chemicals) and 570 μM peptide (Kemptide, American Peptide, Sunnyvale, Calif.). Assays were carried out at 30° C. and in the presence of 40 nM Aurora-2.
An assay stock buffer solution was prepared containing all of the reagents listed above, with the exception of Aurora-2 and the test compound of interest. 55 μl of the stock solution was placed in a 96 well plate followed by addition of 2 μl of DMSO stock containing serial dilutions of the test compound (typically starting from a final concentration of 7.5 μM). The plate was preincubated for 10 minutes at 30° C. and the reaction initiated by addition of 10 μl of Aurora-2. Initial reaction rates were determined with a Molecular Devices SpectraMax Plus plate reader over a 10 minute time course. IC50 and Ki data were calculated from non-linear regression analysis using the Prism software package (GraphPad Prism version 3.0cx for Macintosh, GraphPad Software, San Diego Calif., USA).

Colo205 cells = test: Analysis of Cell Proliferation, 3H thymidine incorporation; assay type: cell-based; conditions: Homo sapiens
Experimental: Compounds were screened for their ability to inhibit cell proliferation using Colo205 cells obtained from ECACC and using the assay shown below.
Colo205 cells were seeded in 96 well plates and serially diluted compound was added to the wells in duplicate. Control groups included untreated cells, the compound diluent (0.1% DMSO alone) and culture medium without cells. The cells were then incubated for 72 or 96 hrs at 37C in an atmosphere of 5% CO2/95% humidity.
To measure proliferation, 3 h prior to the end of the experiment 0.5 μCi of 3H thymidine was added to each well. Cells were then harvested and the incorporated radioactivity counted on a Wallac microplate beta-counter. Dose response curves were calculated using either Prism 3.0 (GraphPad) or SoftMax Pro 4.3.1 LS (Molecular Devices) software.

[1] = target: T2, T315I mutant of human Abl (Homo sapiens, UniProt P00519, T315I); test: Mutant Abl Kinase (T315I) Activity Inhibition Assay (Upstate, radiometric); assay type: biochemical
T2 construct: purchased Upstate Cell Signaling Solutions (Dundee, UK)

Aurora-1 (Aurora B) = Aurora-1 (Aurora B) (Homo sapiens, UniProt Q96GD4); test: Aurora-1 (Aurora B) Inhibition Assay (radiometric); assay type: biochemical; conditions: 800 μM ATP; read-out: Aurora B kinase activity Ki
Experimental: An assay buffer solution was prepared which consisted of 25 mM HEPES (pH 7.5), 10 mM MgCl2, 0.1% BSA and 10% glycerol. A 22 nM Aurora-B solution, also containing 1.7 mM DTT and 1.5 mM Kemptide (LRRASLG), was prepared in assay buffer. To 22 μL of the Aurora-B solution, in a 96-well plate, was added 2 μl of a compound stock solution in DMSO and the mixture allowed to equilibrate for 10 minutes at 25° C. The enzyme reaction was initiated by the addition of 16 μl stock [γ-^33P]-ATP Pi-ATP solution (˜20 nCi/μL) prepared in assay buffer, to a final assay concentration of 800 μM. The reaction was stopped after 3 hours by the addition of 16 μL 500 mM phosphoric acid and the levels of ^33P incorporation into the peptide substrate were determined by the following method.
A phosphocellulose 96-well plate (Millipore, Cat no. MAPHNOB50) was pre-treated with 100 μL of a 100 mM phosphoric acid prior to the addition of the enzyme reaction mixture (40 μL). The solution was left to soak on to the phosphocellulose membrane for 30 minutes and the plate subsequently washed four times with 200 μL of a 100 mM phosphoric acid. To each well of the dry plate was added 30 μL of Optiphase ‘SuperMix’ liquid scintillation cocktail (Perkin Elmer) prior to scintillation counting (1450 Microbeta Liquid Scintillation Counter, Wallac). Levels of non-enzyme catalyzed background radioactivity were determined by adding 16 μL of the 500 mM phosphoric acid to control wells, containing all assay components (which acts to denature the enzyme), prior to the addition of the [γ-^33P]-ATP solution. Levels of enzyme catalyzed ^33P incorporation were calculated by subtracting mean background counts from those measured at each inhibitor concentration. For each Ki determination 8 data points, typically covering the concentration range 0-10 μM compound, were obtained in duplicate (DMSO stocks were prepared from an initial compound stock of 10 mM with subsequent 1:2.5 serial dilutions). Ki values were calculated from initial rate data by non-linear regression using the Prism software package (Prism 3.0, Graphpad Software, San Diego, Calif.).

[2] = target: N-terminally truncated (Δ 27) Abl kinase (Homo sapiens, UniProt P00519); test: Abl Kinase Activity Inhibition Assay, coupled enzyme system; assay type: biochemical; conditions: 110 μM ATP, 30° C.
Experimental: Compounds were screened for their ability to inhibit N-terminally truncated (Δ 27) Abl kinase activity using a standard coupled enzyme system (Fox et al., Protein Sci., 7, pp. 2249 (1998)). Reactions were carried out in a solution containing 100 mM HEPES (pH 7.5), 10 mM MgCl2, 25 mM NaCl, 300 μM NADH, 1 mM DTT and 3% DMSO. Final substrate concentrations in the assay were 110 μM ATP (Sigma Chemicals, St Louis, Mo.) and 70 μM peptide (EAIYAAPFAKKK, American Peptide, Sunnyvale, Calif.). Reactions were carried out at 30° C. and 21 nM Abl kinase. Final concentrations of the components of the coupled enzyme system were 2.5 mM phosphoenolpyruvate, 200 μM NADH, 60 μg/ml pyruvate kinase and 20 μg/ml lactate dehydrogenase.
An assay stock buffer solution was prepared containing all of the reagents listed above with the exception of ATP and the test compound of interest. The assay stock buffer solution (60 μl) was incubated in a 96 well plate with 2 μl of the test compound of interest at final concentrations typically spanning 0.002 μM to 30 μM at 30° C. for 10 min. Typically, a 12 point titration was prepared by serial dilutions (from 1 mM compound stocks) with DMSO of the test compounds in daughter plates. The reaction was initiated by the addition of 5 μl of ATP (final concentration 110 μM). Rates of reaction were obtained using a Molecular Devices Spectramax plate reader (Sunnyvale, Calif.) over 10 min at 30° C. The Ki values were determined from the residual rate data as a function of inhibitor concentration using nonlinear regression (Prism 3.0, Graphpad Software, San Diego, Calif.).

[3] = COLO 205, 96 h, 96 hours, read-out: IC50 cell proliferation after 96 hours
[4] = COLO 205, 72 h, 72 hours, read-out: IC50 cell proliferation after 72 hours

Chain of Aurora-1 (Aurora B) (Q96GD4 whole entry): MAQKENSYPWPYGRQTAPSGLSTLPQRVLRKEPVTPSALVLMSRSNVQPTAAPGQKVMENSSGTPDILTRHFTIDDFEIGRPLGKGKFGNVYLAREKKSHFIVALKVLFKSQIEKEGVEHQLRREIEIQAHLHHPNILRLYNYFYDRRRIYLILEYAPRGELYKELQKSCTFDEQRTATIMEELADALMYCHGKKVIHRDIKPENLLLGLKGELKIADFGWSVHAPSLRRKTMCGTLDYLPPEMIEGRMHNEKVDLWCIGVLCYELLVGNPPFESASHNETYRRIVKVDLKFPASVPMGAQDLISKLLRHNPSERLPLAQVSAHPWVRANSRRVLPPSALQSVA

SMILES	Ki (Aurora-2 (Aurora A)) [nM]	IC50 (Colo205 cells; [3]) [nM]	Ki [1] [nM]	Ki (Aurora-1 (Aurora B)) [nM]	Ki [2] [nM]	IC50 (Colo205 cells; [4]) [nM]
Cc1cc(Nc2cc(N3CCC(N4CCCC4)CC3)nc(Sc3ccc(NC(=O)C4(C(F)(F)F)CC4)cc3)n2)[nH]n1 [Compound I-65]	≤ 10		< 200	10 to 50	25 to 100	≤ 25
CCC(=O)Nc1ccc(Sc2nc(Nc3cc(C)n[nH]3)cc(N3CCC(N4[C@H](C)CC[C@H]4C)CC3)n2)cc1 [Compound I-57]	≤ 10	≤ 50		10 to 50	< 25	
Cc1cnc(Nc2cc(N3CCC(N4CCCC4)CC3)nc(Sc3ccc(NC(=O)C4CC4)cc3)n2)s1 [Compound I-38]	≤ 10	≤ 50		10 to 50	< 25	
CCC(=O)Nc1ccc(Sc2nc(Nc3cc(C)[nH]n3)cc(N3CC[C@H](N(C)C)C3)n2)cc1 [Compound I-46]	≤ 10	≤ 50		10 to 50	< 25	
Cc1cc(Nc2cc(N3CCC(F)(F)C3)nc(Sc3ccc(NC(=O)CC(F)(F)F)cc3)n2)[nH]n1 [Compound I-27]	≤ 10	50 to 200	< 200	10 to 50	25 to 100	25 to 125
Cc1cnc(Nc2cc(N3CC[C@@H](N(C)C)C3)nc(Sc3ccc(NC(=O)C4CC4)cc3)n2)s1 [Compound I-29]	≤ 10	50 to 200	< 200	10 to 50	< 25	
Cc1cc(Nc2cc(N3CCC(O)CC3)nc(Sc3ccc(NC(=O)CC(F)(F)F)cc3)n2)[nH]n1 [Compound I-80]	≤ 10		< 200	≤ 10	25 to 100	25 to 125
Cc1cc(Nc2cc(N3CCC(N4CCC(F)(F)C4)CC3)nc(Sc3ccc(NC(=O)CC(F)(F)F)cc3)n2)[nH]n1 [Compound I-82]	≤ 10		200 to 500	10 to 50		25 to 125
Cc1cc(Nc2cc(N3CCC(N4CCCC4)CC3)nc(Sc3ccc(NC(=O)CC(F)(F)F)cc3)n2)[nH]n1 [Compound I-68]	≤ 10		< 200	10 to 50	< 25	≤ 25
CN[C@H]1CCN(c2cc(Nc3ncc(C)s3)nc(Sc3ccc(NC(=O)C4CC4)cc3)n2)C1 [Compound I-52]	≤ 10	≤ 50			< 25	
Cc1cc(Nc2cc(N3CCC(N4CCOCC4)CC3)nc(Sc3ccc(NC(=O)CC(F)(F)F)cc3)n2)[nH]n1 [Compound I-72]	≤ 10		< 200	≤ 10		≤ 25
CCC(=O)Nc1ccc(Sc2nc(Nc3cc(C)n[nH]3)cc(N3CCC(O)(C(C)(C)C)CC3)n2)cc1 [Compound I-61]	≤ 10	≤ 50	200 to 500	10 to 50		
CCC(=O)Nc1ccc(Sc2nc(Nc3cc(C)n[nH]3)cc(N3CCC4(CCN(C)C4)CC3)n2)cc1 [Compound I-53]	≤ 10	≤ 50	< 200		< 25	25 to 125

Continued, values first:

Ki (Aurora-2 (Aurora A)) [nM]	IC50 (Colo205 cells; [3]) [nM]	Ki [1] [nM]	Ki (Aurora-1 (Aurora B)) [nM]	Ki [2] [nM]	IC50 (Colo205 cells; [4]) [nM]	SMILES
≤ 10	≤ 50	200 to 500				CCC(=O)Nc1ccc(Sc2nc(Nc3cc(C)n[nH]3)cc(N3CC[C@H](N4CCCC4)C3)n2)cc1 [Compound I-55]
≤ 10		< 200	10 to 50	25 to 100		CCC(=O)Nc1ccc(Sc2nc(Nc3cc(C)n[nH]3)cc(N3CCC(NC(C)(C)C)CC3)n2)cc1 [Compound I-7]
≤ 10	50 to 200	200 to 500	10 to 50	< 25		CCC(=O)Nc1ccc(Sc2nc(Nc3cc(C)n[nH]3)cc(N3CCC(F)C3)n2)cc1 (stereo not drawn) [Compound I-18]
≤ 10	≤ 50	200 to 500	10 to 50	25 to 100		CCC(=O)Nc1ccc(Sc2nc(Nc3cc(C)n[nH]3)cc(N3CCC(C(C)(C)O)CC3)n2)cc1 [Compound I-42]
≤ 10		< 200	10 to 50	25 to 100	25 to 125	Cc1cc(Nc2cc(N3CCC(F)C3)nc(Sc3ccc(NC(=O)CCC(F)(F)F)cc3)n2)[nH]n1 (stereo not drawn) [Compound I-81]
≤ 10	≤ 50		10 to 50	< 25		CCC(=O)Nc1ccc(Sc2nc(Nc3cc(C)n[nH]3)cc(N3CC4CN(C(C)C)CC4C3)n2)cc1 (stereo not drawn) [Compound I-60]
≤ 10	≤ 50	< 200		25 to 100	25 to 125	CCC(=O)Nc1ccc(Sc2nc(Nc3cc(C)n[nH]3)cc(N3CCC(N4CCCC4)CC3)n2)cc1 [Compound I-41]
≤ 10	≤ 50		10 to 50	< 25		CCN[C@H]1CCN(c2cc(Nc3cc(C)n[nH]3)nc(Sc3ccc(NC(=O)CC)cc3)n2)C1 [Compound I-39]
